Reference: patent US8865723B2, “Selective PDE4 B inhibition and improvement in cognition in subjects with brain injury” (Tetra Discovery Partners LLC, priority 2012, dated 2014)

Legend:
[1] = test system: traumatic brain injury (TBI) rats; experiment: Working memory version of the water maze task, week 14 post-surgery; assay type: in vivo, Sprague Dawley rats; settings: 0.3 mg/kg 30 min prior to testing
Excerpt: Sprague Dawley rats were subjected to moderate parasagittal fluid-percussion brain injury using methods described in Atkins et al, J Neurosci Res 90, 1861-71 (2012). Adult male Sprague Dawley rats (280-300 g; Charles Rivers Laboratories) were anesthetized with 3% isoflurane, 70% N2O, and 30% O2 and received a 4.8-mm craniotomy (3.8 mm posterior to bregma, 2.5 mm lateral to the midline) over the right parietal cortex. Twenty-four hours after the craniotomy, the animals were re-anesthetized (3% isoflurane, 70% N2O, and 30% O2); immobilized with pancuronium bromide (1.0 mg/kg); and mechanically ventilated with 1% isoflurane, 70% N2O, and 30% O2. When physiological measurements had stabilized, the animals received a fluid-percussion pulse (1.8-2.2 atmospheres, 14-16 msec) or sham injury with the fluid-percussion brain injury device. Blood gases, blood pH, and mean arterial blood pressure were monitored for 30 min prior to the fluid percussion brain injury or sham surgery and for up to 1 hr post-injury to maintain normal levels. Injured and sham injured rats were coded such that the investigator assessing the behavior of the animals would not know their injury status. […]
To assess working memory in TBI animals, a working memory version of the water maze task was used on week 14 post-surgery. […] Escape latency differences between the first location trial and subsequent match trial were measured.

[2] = test system: traumatic brain injury (TBI) rats; experiment: Water maze test (acquisition and probe trial) 12 weeks after fluid-percussion brain injury; assay type: in vivo, Sprague Dawley rats
Excerpt: Sprague Dawley rats were subjected to moderate parasagittal fluid-percussion brain injury using methods described in Atkins et al, J Neurosci Res 90, 1861-71 (2012). Adult male Sprague Dawley rats (280-300 g; Charles Rivers Laboratories) were anesthetized with 3% isoflurane, 70% N2O, and 30% O2 and received a 4.8-mm craniotomy (3.8 mm posterior to bregma, 2.5 mm lateral to the midline) over the right parietal cortex. Twenty-four hours after the craniotomy, the animals were re-anesthetized (3% isoflurane, 70% N2O, and 30% O2); immobilized with pancuronium bromide (1.0 mg/kg); and mechanically ventilated with 1% isoflurane, 70% N2O, and 30% O2. When physiological measurements had stabilized, the animals received a fluid-percussion pulse (1.8-2.2 atmospheres, 14-16 msec) or sham injury with the fluid-percussion brain injury device. Blood gases, blood pH, and mean arterial blood pressure were monitored for 30 min prior to the fluid percussion brain injury or sham surgery and for up to 1 hr post-injury to maintain normal levels. Injured and sham injured rats were coded such that the investigator assessing the behavior of the animals would not know their injury status.
2-(4-(2-(5-chlorothiophen-2-yl)-5-ethyl-6-methylpyrimidin-4-yl)amino)phenyl)acetic acid (Compound 33) was dissolved in 100% dimethylsulfoxide (DMSO) at 1 mg/ml and then diluted 20 fold into 0.9% sodium chloride (saline) with 2 molar equivalents of sodium hydroxide (0.258 mM) to yield a final concentration of Compound 33 at 0.05 mg/ml in 5% DMSO saline. Rats treated with vehicle received 5% DMSO in saline. Four treatment groups were studied; TBI rats treated with vehicle, TBI rats treated with Compound 33, sham rats treated with vehicle, and sham rats treated with Compound 33. Compound 33 and vehicle were delivered by intraperitoneal injection. Compound 33 was administered at a dose of 0.3 mg/kg. […] At 12 weeks after surgery, the rats were administered either vehicle or Compound 33 only 30 minutes prior to training on the water maze test.
Twelve weeks after surgery, rats were tested for cognitive ability using the water maze test. Animals received vehicle or Compound 33 (0.3 mg/kg, i.p.) 30 min prior to water maze training. The circular pool (122 cm diameter, 60 cm deep) was filled with opaque water at 24° C. and surrounded by distinct, invariant extramaze cues. An escape platform, 9.3 cm in diameter, was submerged 1.5 cm below the water surface. Animals received four 60 s acquisition trials per day for 4 days with inter-trial intervals of 4 min. […] Path length to reach the platform, escape latency, and swim speed were analyzed with EthoVision software (Noldus Information Technology). […]

[3] = test system: subjects suffering a brain injury; settings: administered 1 hour after the injury; cited from earlier work
brain injury = settings: within 30 minutes of a brain injury; cited from earlier work
normal uninjured brains = settings: cited from earlier work
[4] = 0.3 mg/kg i.p. 30 min prior to training, 4 training days, 12 weeks after surgery

CCc1c(C)nc(-c2ccc(Cl)s2)nc1Nc1ccc(CC(=O)O)cc1 [Compound 33]
working memory (escape latency difference between location and match trial) [1]: this deficit was rescued by Compound 33 treatment
escape latency to reach the hidden platform during acquisition [2, 4]: progressive decrease
path length to reach the hidden platform during acquisition [2, 4]: progressive decrease
indices of learning (escape latency and path length) on the 4th day of acquisition ([2]; 0.3 mg/kg i.p., 4th day of acquisition, versus sham animals): comparable to sham animals treated with vehicle or Compound 33
time in the target quadrant, probe trial (retention) ([2]; 24 h after last acquisition trial, platform removed, no drug on probe day): spent less time in the target quadrant as compared to Compound 33-treated TBI animals

CC(=O)CCCCn1c(=O)c2c(ncn2C)n(C)c1=O [pentoxyfilline]
TNF-α [3]: reduced TNF-α
outcomes after brain injury [3]: improved outcomes

COc1ccc(C2CNC(=O)C2)cc1OC1CCCC1 (stereo not drawn) [rolipram]
effect on brain injury (brain injury): exacerbates the brain injury
learning and memory (normal uninjured brains): improve learning and memory
